Source: publication PMC7026418, “The kinase polypharmacology landscape of clinical PARP inhibitors” (Scientific Reports, 2020)
Like-named read-outs stand apart in the source and are kept apart here.

Tests used:
Test in all cases: biochemical
Design in all cases: DiscoveRx KINOMEscan active site-directed competition binding; percent of control kinase bound to immobilised ligand
[1] = biological target: T1, RSK2(Kin.Dom.2-C-terminal) (Homo sapiens, UniProt P51812)
T1 construct: gene RPS6KA3; Kin.Dom.2-C-terminal

STK36 = biological target: T2, STK36 (Homo sapiens, UniProt Q9NRP7)
T2 sequence (Q9NRP7 1-1315): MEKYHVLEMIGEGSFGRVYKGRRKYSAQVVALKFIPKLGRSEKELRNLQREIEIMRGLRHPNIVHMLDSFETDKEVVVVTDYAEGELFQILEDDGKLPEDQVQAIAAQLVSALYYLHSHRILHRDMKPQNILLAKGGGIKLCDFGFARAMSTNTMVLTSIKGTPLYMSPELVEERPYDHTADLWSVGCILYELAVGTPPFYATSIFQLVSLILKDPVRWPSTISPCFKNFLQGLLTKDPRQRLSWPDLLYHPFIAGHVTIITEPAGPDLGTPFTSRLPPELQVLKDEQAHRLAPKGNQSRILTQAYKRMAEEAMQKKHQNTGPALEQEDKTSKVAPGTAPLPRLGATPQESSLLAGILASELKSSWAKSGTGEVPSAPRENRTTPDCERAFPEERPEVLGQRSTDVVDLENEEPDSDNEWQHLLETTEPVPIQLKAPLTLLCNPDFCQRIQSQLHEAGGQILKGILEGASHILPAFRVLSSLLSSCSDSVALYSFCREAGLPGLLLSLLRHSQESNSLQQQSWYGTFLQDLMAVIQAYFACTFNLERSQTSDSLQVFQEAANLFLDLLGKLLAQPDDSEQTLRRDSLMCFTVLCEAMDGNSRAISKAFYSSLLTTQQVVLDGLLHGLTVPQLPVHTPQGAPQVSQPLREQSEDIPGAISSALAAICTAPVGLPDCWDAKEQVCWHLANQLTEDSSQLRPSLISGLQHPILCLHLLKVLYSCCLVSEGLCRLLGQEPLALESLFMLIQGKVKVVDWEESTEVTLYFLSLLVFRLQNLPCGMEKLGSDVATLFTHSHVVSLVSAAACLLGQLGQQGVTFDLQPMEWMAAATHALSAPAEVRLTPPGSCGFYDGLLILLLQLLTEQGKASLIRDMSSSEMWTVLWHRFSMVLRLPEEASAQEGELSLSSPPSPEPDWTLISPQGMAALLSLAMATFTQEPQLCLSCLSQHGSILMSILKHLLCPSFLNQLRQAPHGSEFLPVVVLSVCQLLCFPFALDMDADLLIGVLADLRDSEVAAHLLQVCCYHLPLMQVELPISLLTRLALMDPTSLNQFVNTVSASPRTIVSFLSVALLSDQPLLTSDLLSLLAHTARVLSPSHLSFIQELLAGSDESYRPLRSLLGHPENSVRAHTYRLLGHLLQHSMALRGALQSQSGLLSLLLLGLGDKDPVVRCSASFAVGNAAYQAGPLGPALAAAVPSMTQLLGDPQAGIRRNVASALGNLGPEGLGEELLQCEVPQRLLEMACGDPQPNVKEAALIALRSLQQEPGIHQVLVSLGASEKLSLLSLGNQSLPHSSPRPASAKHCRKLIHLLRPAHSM

AKT1 = AKT1 (Homo sapiens, UniProt P31749)
IKK-alpha = biological target: T3, IKK-alpha (Homo sapiens, UniProt O15111)
T3 construct: gene CHUK
T3 sequence (O15111 1-745): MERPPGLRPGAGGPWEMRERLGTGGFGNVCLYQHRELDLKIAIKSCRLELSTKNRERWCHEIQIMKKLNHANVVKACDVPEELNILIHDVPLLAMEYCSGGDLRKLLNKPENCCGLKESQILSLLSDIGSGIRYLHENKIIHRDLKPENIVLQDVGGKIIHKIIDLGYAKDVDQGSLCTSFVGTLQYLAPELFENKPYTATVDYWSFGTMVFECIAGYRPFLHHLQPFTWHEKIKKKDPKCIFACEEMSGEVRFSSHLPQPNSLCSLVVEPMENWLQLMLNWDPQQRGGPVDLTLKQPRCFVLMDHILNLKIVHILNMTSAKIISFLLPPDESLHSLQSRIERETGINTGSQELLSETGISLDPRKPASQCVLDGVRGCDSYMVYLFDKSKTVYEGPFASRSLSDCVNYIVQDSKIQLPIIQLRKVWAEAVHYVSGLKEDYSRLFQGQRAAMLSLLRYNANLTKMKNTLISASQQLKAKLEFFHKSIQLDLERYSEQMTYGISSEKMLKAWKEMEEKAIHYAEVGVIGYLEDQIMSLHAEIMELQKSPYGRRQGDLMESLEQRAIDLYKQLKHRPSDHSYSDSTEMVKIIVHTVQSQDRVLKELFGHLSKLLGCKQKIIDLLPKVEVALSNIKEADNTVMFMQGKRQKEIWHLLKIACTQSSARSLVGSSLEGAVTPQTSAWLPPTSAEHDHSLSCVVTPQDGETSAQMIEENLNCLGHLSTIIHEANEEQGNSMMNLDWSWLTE

[2] = read-out: Talazoparib (BMN 673) / %Ctrl @ 10000nM
[3] = read-out: Olaparib / %Ctrl @ 10000nM
[4] = read-out: Rucaparib / %Ctrl @ 10000nM, binding competition, % of control
[5] = read-out: Niraparib (MK-4827) / %Ctrl @ 10000nM

Sequence of AKT1 (P31749 whole entry): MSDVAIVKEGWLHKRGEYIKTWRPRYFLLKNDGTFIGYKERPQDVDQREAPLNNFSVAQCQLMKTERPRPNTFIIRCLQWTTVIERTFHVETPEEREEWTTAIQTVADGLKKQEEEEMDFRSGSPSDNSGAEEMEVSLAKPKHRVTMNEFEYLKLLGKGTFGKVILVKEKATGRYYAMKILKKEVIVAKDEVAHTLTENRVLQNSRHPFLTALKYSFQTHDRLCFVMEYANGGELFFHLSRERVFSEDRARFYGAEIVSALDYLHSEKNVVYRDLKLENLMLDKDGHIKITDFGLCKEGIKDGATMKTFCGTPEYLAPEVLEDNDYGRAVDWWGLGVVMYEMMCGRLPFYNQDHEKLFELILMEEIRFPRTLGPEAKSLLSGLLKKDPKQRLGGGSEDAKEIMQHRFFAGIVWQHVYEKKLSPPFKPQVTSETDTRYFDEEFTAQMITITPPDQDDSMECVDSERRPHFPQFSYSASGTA
T1 sequence (P51812 whole entry): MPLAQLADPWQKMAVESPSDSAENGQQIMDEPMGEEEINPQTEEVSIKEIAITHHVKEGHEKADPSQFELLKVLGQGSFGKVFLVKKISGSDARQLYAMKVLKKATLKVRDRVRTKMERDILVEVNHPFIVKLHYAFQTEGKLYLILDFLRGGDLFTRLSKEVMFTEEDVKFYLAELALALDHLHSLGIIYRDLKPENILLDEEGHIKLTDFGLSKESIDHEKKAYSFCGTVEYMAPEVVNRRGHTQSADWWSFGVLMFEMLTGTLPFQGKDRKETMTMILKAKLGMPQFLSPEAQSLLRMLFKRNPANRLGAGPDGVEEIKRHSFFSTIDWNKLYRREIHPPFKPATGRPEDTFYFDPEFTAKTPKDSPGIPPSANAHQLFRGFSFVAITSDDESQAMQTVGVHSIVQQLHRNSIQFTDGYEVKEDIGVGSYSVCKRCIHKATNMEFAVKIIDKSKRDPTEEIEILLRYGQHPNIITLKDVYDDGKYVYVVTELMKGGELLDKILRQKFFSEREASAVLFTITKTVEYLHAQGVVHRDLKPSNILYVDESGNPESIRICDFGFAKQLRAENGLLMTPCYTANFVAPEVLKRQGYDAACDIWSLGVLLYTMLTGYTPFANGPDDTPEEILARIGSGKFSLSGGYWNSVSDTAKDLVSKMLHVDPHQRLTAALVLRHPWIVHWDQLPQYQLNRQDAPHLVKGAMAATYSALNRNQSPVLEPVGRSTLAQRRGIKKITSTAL

SMILES: Cn1ncnc1[C@H]1c2n[nH]c(=O)c3cc(F)cc(c23)N[C@@H]1c1ccc(F)cc1 [Talazoparib]
- percent of control binding at 10 µM [1, 2]: 100%
- percent of control binding at 10 µM (STK36; [2]): 56%
- percent of control binding at 10 µM (AKT1; [2]): 92%
- percent of control binding at 10 µM (IKK-alpha; [2]): 100%

SMILES: O=C(c1cc(Cc2n[nH]c(=O)c3ccccc23)ccc1F)N1CCN(C(=O)C2CC2)CC1 [Olaparib]
- percent of control binding at 10 µM [1, 3]: 72%
- percent of control binding at 10 µM (STK36; [3]): 96%
- percent of control binding at 10 µM (AKT1; [3]): 100%
- percent of control binding at 10 µM (IKK-alpha; [3]): 79%

SMILES: CNCc1ccc(-c2[nH]c3cc(F)cc4c3c2CCNC4=O)cc1 [Rucaparib]
- percent of control binding at 10 µM [1, 4]: 64%
- percent of control binding at 10 µM (STK36; [4]): 69%
- percent of control binding at 10 µM (AKT1; [4]): 91%
- percent of control binding at 10 µM (IKK-alpha; [4]): 42%

SMILES: NC(=O)c1cccc2cn(-c3ccc([C@@H]4CCCNC4)cc3)nc12 [Niraparib]
- percent of control binding at 10 µM [1, 5]: 100%
- percent of control binding at 10 µM (STK36; [5]): 88%
- percent of control binding at 10 µM (AKT1; [5]): 99%
- percent of control binding at 10 µM (IKK-alpha; [5]): 100%
